{"source": "patent US9371387B2", "about": "(GACHON UNIVERSITY OF INDUSTRY-ACADEMIC COOPERATION …, priority 2011, dated 2016)", "tested_on": "human macrophage cells", "experiment": "AGE-albumin synthesis and release by macrophages under oxidative stress (ELISA)", "type": "cell-based", "settings": "FIG. 3", "description": "For the in vitro study, immortal human macrophage cells were employed. The macrophages were grown in DMEM (Dulbecco's modified Eagle's medium, Gibco)-high glucose supplemented with 10% heat-inactivated FBS (fetal bovine serum, Gibco) and […] gentamicin (Sigma-Aldrich) at 37° C. in a 5% CO2 atmosphere.\nAfter incubation at 4° C. for 12 hrs, the plates were washed three times with 1×PBS to remove the antibody which remained non-immobilized to the well, and then was filled with 5% BSA. […] After the plates were washed three time with 1×PBS to remove the antigens which remained unreacted, an anti-AGE antibody (Abcam) was applied at a concentration of 1 ug/ml to each well and incubated at room temperature for 2 hrs. The antibody remaining unreacted was washed off with 1×PBS. Each well was incubated with 1 ug/ml peroxidase-conjugated secondary antibody (Vector laboratory) at room temperature for 2 hrs and washed with 1×PBS to remove the secondary antibodies which remained unreacted. Color was developed with TMB (3,3′,5,5′-tetramethylbenzidine) at room temperature for 20 min. When the TMP buffer turned dark blue, the color development was stopped with 2NH2SO4. Absorbance at 450 nm was read on an ELISA reader (VERSA Max, Molecular Devices) (FIG. 1)."}
{"compound": "O=C1O[C@H]([C@@H](O)CO)C(O)=C1O", "note": "[ascorbic acid]", "values": [{"measurement": "expression level of AGE-albumin", "setting": "macrophages, addition of antioxidant, irrespective of hypoxia (H2O2)", "result": "drastically reduced"}]}
{"compound": "OO", "note": "[hydrogen peroxide]", "values": [{"measurement": "amount of AGE-albumin", "setting": "macrophages exposed to hydrogen peroxide", "result": "increased in a concentration-dependent manner"}]}
